Assay results as given in article PMC8000041, “New Insights into the Metabolism of the Flavanones Eriocitrin and Hesperidin: A Comparative Human Pharmacokinetic Study” (Antioxidants, 2021).
Where two headings read alike, the source gives them in different places.

How the values were obtained:
[1] = Urinary excretion of flavanone-derived metabolites after single intake of lemon or orange extract (UPLC-ESI-QTOF-MS); format: in vivo, human; conditions: for Urinary excretion F1: urine fraction 0-4 h; for Urinary excretion F1 / Urinary excretion Total F / Urinary excretion F2 / Urinary excretion F3 / Urinary excretion F4: mean ± SD; for Urinary excretion Total F: sum of fractions F1-F4 (24 h); for Urinary excretion F2: urine fraction 4-8 h; for Urinary excretion F3: urine fraction 8-10 h; for Urinary excretion F4: urine fraction 10-24 h; for Occurrence Urine LE (number of volunteers in whom the metabolite was detected): after consuming lemon extract; for Occurrence Urine LE (number of volunteers in whom the metabolite was detected) / Occurrence Urine OE (number of volunteers in whom the metabolite was detected): n = 16 volunteers; for Occurrence Urine OE (number of volunteers in whom the metabolite was detected): after consuming orange extract; for Urinary excretion after lemon extract vs. orange extract: ratio lemon / orange extract intake
Excerpt: Secondary endpoints involved the evaluation of post-prandial changes in several biomarkers dealing with metabolism, inflammation, and oxidative stress after a high-fat-high-sugars meal. The design was a randomized pharmacokinetic, double-blind, crossover, single-dose trial consisted of 2 test-phases. The volunteers were randomly allocated into two groups using a computerized random number list. Each group consumed one of the citrus extracts by following a test-phase that lasted for 1 day for blood sampling and urine collection, a 2-week washout period between each test phase, and crossover before consuming the other extract. The volunteers were instructed to avoid the consumption of flavanone-containing products, from a list provided by the researchers, for 1 week before the study and during the wash-out phase (citrus fruit juices, tomatoes, tomato-based sauces (like ‘ketchup’), peppers, almonds, etc.). […] The 3 capsules provided a total of 1.95 g orange extract, containing 260 mg hesperidin, and 3.1 g lemon extract, containing 260 mg eriocitrin. […] Untreated urine samples were aliquoted and frozen at −80 °C for up to 4 weeks until analyses, avoiding freeze-thaw cycles to avoid metabolites’ deconjugation. Moreover, three measurements of blood pressure and heart rate were taken before each time-point of blood withdrawal. […] A previously validated method for analyzing phenolic metabolites in biological samples, including flavanone-derived metabolites, was used. […] After centrifugation at 14,000× g for 10 min at 4 °C, the supernatant was evaporated in a speed vacuum concentrator. Finally, samples were re-suspended in 100 µL of methanol, filtered through a 0.22 µm cellulose filters before analysis by UPLC- ESI-QTOF-MS. […] A targeted screening strategy was applied to identify metabolites that could be present after consuming the citrus extracts. Twenty-eight possible compounds were browsed in all the samples. The list of compounds included the polyphenols present in the extracts, with particular focus on the flavanone rutinosides hesperidin and eriocitrin, their respective aglycones hesperetin, and eriodictyol, as well as their derived phase-II conjugates (glucuronides, sulfates, sulfoglucuronides, etc.). The exact mass of each proposed compound was extracted using an extraction window of 0.01 m/z. The metabolites hesperetin 7-O-glucuronide, hesperetin 3′-O-glucuronide, hesperetin 3-O-sulfate, naringenin 4′-O-glucuronide, and naringenin 7′-O-glucuronide were quantified with their corresponding standards. […] The parent phenolic compounds were quantified with their corresponding standards. In the case of some relevant conjugated metabolites, which standards were not available (eriodictyol and homoeriodictyol conjugates), their quantification was achieved by using relative response factors (RRFs) as previously described. Briefly, RRFs are useful to check the different responses of metabolites in the mass spectrometer vs. their UV signal. While the ionization response of free vs. conjugated forms is usually very different, their UV signal response is quite similar. To this purpose, we injected in a HPLC-DAD-ESI-Q (MS) the plasma samples (n = 5) with the highest concentrations of those conjugated metabolites. Concentrations were calculated by integrating the area from their corresponding UV peaks and compared with the UV peak area of a known concentration of their corresponding available parent compounds (eriodictyol and homoeriodictyol). The concentrations calculated were used to compare the MS response for each conjugated-aglycone pair.

[2] = Plasma metabolites and pharmacokinetics after single intake of lemon or orange extract (UPLC-ESI-QTOF-MS, non-compartmental analysis); format: in vivo, human; conditions: for Occurrence Plasma LE (number of volunteers in whom the metabolite was detected): after consuming lemon extract; for Occurrence Plasma LE (number of volunteers in whom the metabolite was detected) / Occurrence Plasma OE (number of volunteers in whom the metabolite was detected): n = 16 volunteers; for Occurrence Plasma OE (number of volunteers in whom the metabolite was detected): after consuming orange extract; for Tmax / Cmax / AUC(0-t): mean ± SD; for AUC(0-t): read-out: AUC0-t
Excerpt: Secondary endpoints involved the evaluation of post-prandial changes in several biomarkers dealing with metabolism, inflammation, and oxidative stress after a high-fat-high-sugars meal. The design was a randomized pharmacokinetic, double-blind, crossover, single-dose trial consisted of 2 test-phases. The volunteers were randomly allocated into two groups using a computerized random number list. Each group consumed one of the citrus extracts by following a test-phase that lasted for 1 day for blood sampling and urine collection, a 2-week washout period between each test phase, and crossover before consuming the other extract. The volunteers were instructed to avoid the consumption of flavanone-containing products, from a list provided by the researchers, for 1 week before the study and during the wash-out phase (citrus fruit juices, tomatoes, tomato-based sauces (like ‘ketchup’), peppers, almonds, etc.). […] The 3 capsules provided a total of 1.95 g orange extract, containing 260 mg hesperidin, and 3.1 g lemon extract, containing 260 mg eriocitrin. […] Plasma samples were obtained by centrifugation of peripheral venous blood at 14,000× g for 15 min at 4 °C and immediately frozen at −80 °C. Glucose, total cholesterol, HDL-cholesterol, LDL-cholesterol, triglycerides, insulin, homeostatic model assessment insulin resistance (HOMA-IR), gamma-glutamyl transferase (GGT), and alanine aminotransferase (ALT) were determined as previously reported. […] A previously validated method for analyzing phenolic metabolites in biological samples, including flavanone-derived metabolites, was used. […] After centrifugation at 14,000× g for 10 min at 4 °C, the supernatant was evaporated in a speed vacuum concentrator. Finally, samples were re-suspended in 100 µL of methanol, filtered through a 0.22 µm cellulose filters before analysis by UPLC- ESI-QTOF-MS. A targeted screening strategy was applied to identify metabolites that could be present after consuming the citrus extracts. Twenty-eight possible compounds were browsed in all the samples. The list of compounds included the polyphenols present in the extracts, with particular focus on the flavanone rutinosides hesperidin and eriocitrin, their respective aglycones hesperetin, and eriodictyol, as well as their derived phase-II conjugates (glucuronides, sulfates, sulfoglucuronides, etc.). The exact mass of each proposed compound was extracted using an extraction window of 0.01 m/z. The metabolites hesperetin 7-O-glucuronide, hesperetin 3′-O-glucuronide, hesperetin 3-O-sulfate, naringenin 4′-O-glucuronide, and naringenin 7′-O-glucuronide were quantified with their corresponding standards. […] The parent phenolic compounds were quantified with their corresponding standards. In the case of some relevant conjugated metabolites, which standards were not available (eriodictyol and homoeriodictyol conjugates), their quantification was achieved by using relative response factors (RRFs) as previously described. Briefly, RRFs are useful to check the different responses of metabolites in the mass spectrometer vs. their UV signal. While the ionization response of free vs. conjugated forms is usually very different, their UV signal response is quite similar. To this purpose, we injected in a HPLC-DAD-ESI-Q (MS) the plasma samples (n = 5) with the highest concentrations of those conjugated metabolites. Concentrations were calculated by integrating the area from their corresponding UV peaks and compared with the UV peak area of a known concentration of their corresponding available parent compounds (eriodictyol and homoeriodictyol). The concentrations calculated were used to compare the MS response for each conjugated-aglycone pair. Statistical analyses were carried out using the SPSS Software, version 23.0 (SPSS Inc., Chicago, IL, USA). Data are expressed as mean ± SD. The empirical distribution of data with the normality assumption was tested with the Shapiro-Wilk test. […]

[3] = lemon extract (3.1 g, 260 mg eriocitrin)
[4] = orange extract (1.95 g, 260 mg hesperidin)
[5] = after orange (hesperidin) extract
[6] = human, oral, 1.95 g, after orange (hesperidin) extract
[7] = human, oral, 1.95 g, after orange (hesperidin) extract, read-out: Tmax
[8] = human, oral, 3.1 g, after lemon extract
[9] = human, oral, 3.1 g, after lemon extract, read-out: Tmax

SMILES	Urinary excretion F1 [1, 3]	Urinary excretion F2 ([1]; lemon extract)	Urinary excretion F3 ([1]; lemon extract)	Urinary excretion F4 ([1]; lemon extract)	Urinary excretion F1 [1, 4]	Urinary excretion Total F ([1]; orange extract)	Urinary excretion F2 ([1]; orange extract)	Urinary excretion F3 ([1]; orange extract)	Urinary excretion F4 ([1]; orange extract)	Occurrence Urine LE (number of volunteers in whom the metabolite was detected) [1]	Occurrence Urine OE (number of volunteers in whom the metabolite was detected) [1]	Occurrence Plasma LE (number of volunteers in whom the metabolite was detected) [2]	Occurrence Plasma OE (number of volunteers in whom the metabolite was detected) [2]	Tmax [2, 5]	Cmax [2, 6]	AUC(0-t) [2, 6]	Tmax [2, 7]	Cmax [2, 8]	AUC(0-t) [2, 8]	Tmax [2, 9]	other results
O=C1CC(c2ccc(OC3OC(C(=O)O)C(O)C(O)C3O)cc2)Oc2cc(O)cc(O)c21 (stereo not drawn) [M5, Naringenin 4′-O-glucuronide]	0.8 ± 0.5 µg/mg creatinine	1.7 ± 2.7 µg/mg creatinine	1.3 ± 1.5 µg/mg creatinine	0.4 ± 0.3 µg/mg creatinine	0.1 ± 0.1 µg/mg creatinine	1.0 ± 1.5 µg/mg creatinine	0.3 ± 0.5 µg/mg creatinine	0.3 ± 0.4 µg/mg creatinine	0.3 ± 0.5 µg/mg creatinine	16	16	16	14	7.7 ± 2.0 h	7.3 ± 5.9 nM	0.0267 ± 0.0277 µM·h	7.5 h	35.8 ± 25.9 nM	0.129 ± 0.124 µM·h	5.5 h	Urinary excretion Total F ([1]; lemon extract): 4.2 ± 5.0 µg/mg creatinine; Tmax ([2]; after lemon extract): 5.7 ± 2.3 h
COc1ccc(C2CC(=O)c3c(O)cc(OC4OC(C(=O)O)C(O)C(O)C4O)cc3O2)cc1O (stereo not drawn) [M7, Hesperetin 7-O-glucuronide]	1.2 ± 1.4 µg/mg creatinine	4.0 ± 4.7 µg/mg creatinine	2.7 ± 2.5 µg/mg creatinine	0.6 ± 0.6 µg/mg creatinine	0.2 ± 0.6 µg/mg creatinine	5.6 ± 13.2 µg/mg creatinine	2.1 ± 5.7 µg/mg creatinine	2.2 ± 3.6 µg/mg creatinine	1.1 ± 3.3 µg/mg creatinine	16	16	16	16	8.3 ± 1.6 h	49.6 ± 51.7 nM	0.177 ± 0.249 µM·h	8.5 h	169 ± 109 nM	0.703 ± 0.591 µM·h	6.5 h	Urinary excretion Total F ([1]; lemon extract): 8.5 ± 9.2 µg/mg creatinine; Urinary excretion after lemon extract vs. orange extract [1]: around 2 fold; Tmax ([2]; after lemon extract): 6.3 ± 2.0 h
COc1ccc(C2CC(=O)c3c(O)cc(O)cc3O2)cc1OC1OC(C(=O)O)C(O)C(O)C1O (stereo not drawn) [M8, Hesperetin 3′-O-glucuronide]	2.1 ± 2.3 µg/mg creatinine	10.7 ± 11.3 µg/mg creatinine	9.2 ± 7.7 µg/mg creatinine	2.2 ± 2.4 µg/mg creatinine	0.5 ± 1.5 µg/mg creatinine	9.9 ± 18.9 µg/mg creatinine	4.3 ± 11.5 µg/mg creatinine	3.3 ± 4.2 µg/mg creatinine	1.8 ± 1.6 µg/mg creatinine	16	16	16	16	8.4 ± 1.6 h	107 ± 128 nM	0.409 ± 0.643 µM·h	8.5 h	198 ± 104 nM	0.803 ± 0.569 µM·h	6.5 h	Urinary excretion Total F ([1]; lemon extract): 24.2 ± 23.7 µg/mg creatinine; Tmax ([2]; after lemon extract): 6.4 ± 2.0 h
O=C1C[C@@H](c2ccc(O)c(O)c2)Oc2cc(O)cc(O)c21 [M12, Eriodictyol]	–	–	–	–	–	–	–	–	–	14	4	16	0	–	–	–	–	–	–	–	–
COc1ccc(C2CC(=O)c3c(O)cc(O)cc3O2)cc1OS(=O)(=O)O (stereo not drawn) [M14, Hesperetin 3′-O-sulfate]	1.9 ± 2.6 µg/mg creatinine	4.3 ± 4.5 µg/mg creatinine	3.3 ± 3.1 µg/mg creatinine	0.7 ± 0.6 µg/mg creatinine	0.1 ± 0.3 µg/mg creatinine	3.8 ± 7.3 µg/mg creatinine	1.2 ± 3.3 µg/mg creatinine	1.9 ± 3.1 µg/mg creatinine	0.6 ± 0.6 µg/mg creatinine	16	16	16	16	8.4 ± 1.5 h	178 ± 286 nM	0.635 ± 1.17 µM·h	8.5 h	527 ± 358 nM	2.04 ± 1.81 µM·h	6.5 ± 1.9 h	Urinary excretion after lemon extract vs. orange extract [1]: around 2 fold
O=C1C[C@@H](c2ccc(O)cc2)Oc2cc(O)cc(O)c21 [M15, Naringenin]	–	–	–	–	–	–	–	–	–	9	5	6	2	–	–	–	–	–	–	–	–
